Counter-ions that a name gives are not always drawn.
Experiments:
CHK1 (kinase domain) = target: T1, CHK1 (kinase domain) (Homo sapiens, UniProt O14757); test: CHK1 Ki determination, spectrophotometric coupled (pyruvate kinase/lactate dehydrogenase) assay; type: biochemical; conditions: CHK-1 kinase domain; 150 uM ATP, 125 uM Syntide 2
T1 construct: a solution containing 1 nM of CHK1 (kinase domain)
T1 sequence (O14757 9-265 limits assumed): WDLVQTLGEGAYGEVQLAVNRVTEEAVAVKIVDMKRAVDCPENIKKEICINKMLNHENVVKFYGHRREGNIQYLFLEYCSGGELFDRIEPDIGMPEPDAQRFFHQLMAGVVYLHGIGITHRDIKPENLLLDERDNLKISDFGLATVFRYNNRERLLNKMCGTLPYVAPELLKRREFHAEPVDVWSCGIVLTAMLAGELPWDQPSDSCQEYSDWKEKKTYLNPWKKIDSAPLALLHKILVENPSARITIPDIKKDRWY
In short: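 Ki values, or % inhibition where no Ki was obtained, come from a tight-binding fit that uses active enzyme concentration and the ATP Km. Rates were followed as NADH loss at 340 nm, with ADP production coupled via pyruvate kinase and lactate dehydrogenase. Reactions with ATP (150 uM) and Syntide 2 (125 uM) were started after the CHK1 kinase domain had stood with inhibitor for 15 min.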

Mia Paca-2 cells = test: Histone H3 (Ser10) phosphorylation ELISA, abrogation of camptothecin-induced G2 arrest (CHK-1 cellular assay); type: cell-based; conditions: camptothecin 8 hrs, then compound with nocodozole 16 hours
In short: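 HeLa cells, or Mia Paca-2 where marked, were damaged with camptothecin for 8 h, then exposed to compound with nocodazole for 16 h. Mitotic entry was read as phospho-histone H3 (Ser10) by sandwich ELISA, with absorbance at 450 nm. EC50 came from four-parameter sigmoid fitting.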

[1] = Homo sapiens, Mia Paca-2 cells (entries marked *)
[2] = Homo sapiens, MIA PaCa-2, Mia Paca-2 cells (entries marked *)

| Compound | Ki (CHK1 (kinase domain)) | EC50 (Mia Paca-2 cells; [1]) | EC50 (Mia Paca-2 cells; [2]) | EC50 (Mia Paca-2 cells; Mia Paca-2 cells (entries marked *)) |
| --- | --- | --- | --- | --- |
| COC[C@@H]1C[C@@H](Nc2cncc(-c3cnc4cc(C)ccn34)n2)CN1 [Example 239, N-[(3R,5S)-5-(methoxymethyl)pyrrolidin-3-yl]-6-(7-methylimidazo[1,2-a]pyridin-3-yl)pyrazin-2-amine] | 72.2 nM | 201 nM |  |  |
| CCOC[C@@H]1C[C@@H](Nc2cncc(-c3cnc4cc(C)ccn34)n2)CN1 [Example 241, N-[(3R,5S)-5-(ethoxymethyl)pyrrolidin-3-yl]-6-(7-methylimidazo[1,2-a]pyridin-3-yl)pyrazin-2-amine] | 45 nM | 201 nM |  |  |
| CCOC[C@@H]1C[C@@H](Nc2cncc(-c3cnc4cc(OC)ccn34)n2)CN1 [Example 243, N-[(3R,5S)-5-(ethoxymethyl)pyrrolidin-3-yl]-6-(7-methoxyimidazo[1,2-a]pyridin-3-yl)pyrazin-2-amine] | 24.8 nM | 172 nM |  |  |
| COC[C@@H]1C[C@@H](Nc2cncc(-c3cnc4cc(Cl)ccn34)n2)CN1 [Example 244, 6-(7-chloroimidazo[1,2-a]pyridin-3-yl)-N-[(3R,5S)-5-(methoxymethyl)pyrrolidin-3-yl]pyrazin-2-amine] | 15.9 nM | 60.3 nM |  |  |
| OC[C@@H]1C[C@@H](Nc2cncc(-c3cnc4cc(Cl)ccn34)n2)CN1 [Example 245, [(2S,4R)-4-{[6-(7-chloroimidazo[1,2-a]pyridin-3-yl)pyrazin-2-yl]amino}pyrrolidin-2-yl]methanol] | 4.72 nM | 85.9 nM |  |  |
| Cc1ncc(N[C@@H]2CCCNC2)nc1-c1cnc2ccccn12 [Example 247, 6-(imidazo[1,2-a]pyridin-3-yl)-5-methyl-N-[(3R)-piperidin-3-yl]pyrazin-2-amine] | 192 nM |  | 1110 nM |  |
| c1cn2ncc(-c3cncc(N[C@@H]4CCCNC4)n3)c2cn1 [Example 251, N-[(3R)-piperidin-3-yl]-6-(pyrazolo[1,5-a]pyrazin-3-yl)pyrazin-2-amine, acetate salt] | 10 nM | 255 nM |  |  |
| C[C@@H]1CNC[C@@H]1Nc1cncc(-c2cnn3ccncc23)n1 [Example 253, N-[(3R,4R)-4-methylpyrrolidin-3-yl]-6-(pyrazolo[1,5-a]pyrazin-3-yl)pyrazin-2-amine, acetate salt] | 85.6 nM | 1030 nM |  |  |
| Clc1cc2c(cn1)ncn2-c1cncc(N[C@@H]2CCCNC2)n1 [Example 255, 6-(6-chloro-1H-imidazo[4,5-c]pyridin-1-yl)-N-[(3R)-piperidin-3-yl]pyrazin-2-amine] | 34.5 nM | 597 nM |  |  |
| CC(CO)(CO)COc1ccc2c(c1)ncn2-c1cncc(N[C@@H]2CCCNC2)n1 [Example 256, 2-methyl-2-{[(1-{6-[(3R)-piperidin-3-ylamino]pyrazin-2-yl}-1H-benzimidazol-5-yl)oxy]methyl}propane-1,3-diol] | 1.26 nM | 53.7 nM |  |  |
| CO[C@H]1CCNC[C@@H]1Nc1cncc(-c2cnc3ccccn23)n1 [Example 259, 6-(imidazo[1,2-a]pyridin-3-yl)-N-[(3S,4S)-4-methoxypiperidin-3-yl]pyrazin-2-amine] | 3.82 nM |  |  | 38.8 nM |
| CO[C@@H]1CCNC[C@H]1Nc1cncc(-c2cnc3ccccn23)n1 [Example 260, 6-(imidazo[1,2-a]pyridin-3-yl)-N-[(3R,4R)-4-methoxypiperidin-3-yl]pyrazin-2-amine (HCl salt)] | 233 nM |  | 549 nM |  |
| COc1ccn2c(-c3cncc(N[C@H]4C5CCN(CC5)[C@H]4C)n3)cnc2c1 [Example 265, (2S,3S)-N-[6-(7-methoxyimidazo[1,2-a]pyridin-3-yl)pyrazin-2-yl]-2-methyl-1-azabicyclo[2.2.2]octan-3-amine] | 5.37 nM | 244 nM |  |  |
| COC[C@@H]1C[C@@H](Nc2cncc(-c3cnc4ccc(F)cn34)n2)CN1 [Example 266, 6-(6-fluoroimidazo[1,2-a]pyridin-3-yl)-N-[(3R,5S)-5-(methoxymethyl)pyrrolidin-3-yl]pyrazin-2-amine] | 78.7 nM | 548 nM |  |  |
| CCOc1ccc2ncn(-c3cncc(N[C@H]4CN[C@H](COC)C4)n3)c2c1 [Example 268, 6-(6-ethoxy-1H-benzimidazol-1-yl)-N-[(3R,5S)-5-(methoxymethyl)pyrrolidin-3-yl]pyrazin-2-amine] | 65.8 nM | 1480 nM |  |  |
| Clc1cc2c(cn1)ncn2-c1cncc(N[C@@H]2CCNC2)n1 [Example 271, 6-(6-chloro-1H-imidazo[4,5-c]pyridin-1-yl)-N-[(3R)-pyrrolidin-3-yl]pyrazin-2-amine] | 118 nM | 4770 nM |  |  |
| c1ncc(-n2cnc3cnc(N4CCOCC4)cc32)nc1N[C@@H]1CCCNC1 [Example 272, 6-[6-(morpholin-4-yl)-1H-imidazo[4,5-c]pyridin-1-yl]-N-[(3R)-piperidin-3-yl]pyrazin-2-amine] | 40.8 nM | 2010 nM |  |  |
| Cc1cn2c(-c3cncc(N[C@@H]4CCCN[C@@H]4C)n3)cnc2cn1 [Example 285, 6-(6-methylimidazo[1,2-a]pyrazin-3-yl)-N-[(2R,3R)-2-methylpiperidin-3-yl]pyrazin-2-amine] | 21.3 nM | 91 nM |  |  |

Continued by falling Ki (CHK1 (kinase domain)), values first:

| Ki (CHK1 (kinase domain)) | EC50 (Mia Paca-2 cells; [1]) | EC50 (Mia Paca-2 cells; [2]) | EC50 (Mia Paca-2 cells; Mia Paca-2 cells (entries marked *)) | Compound |
| --- | --- | --- | --- | --- |
| 69.3 nM | 1110 nM |  |  | C[C@H]1NCCC[C@H]1Nc1cncc(-c2cnn3ccncc23)n1 [Example 252, N-[(2R,3R)-2-methylpiperidin-3-yl]-6-(pyrazolo[1,5-a]pyrazin-3-yl)pyrazin-2-amine, acetate salt] |
| 61.6 nM | 171 nM |  |  | Cc1ccn2c(-c3cncc(N[C@H]4CN[C@H](COC(C)C)C4)n3)cnc2c1 [Example 240, 6-(7-methylimidazo[1,2-a]pyridin-3-yl)-N-{(3R,5S)-5-[(propan-2-yloxy)methyl]pyrrolidin-3-yl}pyrazin-2-amine] |
| 48.8 nM |  | 1620 nM |  | CO[C@@H]1CNC[C@@H](Nc2cncc(-c3cnc4ccccn34)n2)C1 [Example 250, 6-(imidazo[1,2-a]pyridin-3-yl)-N-[(3S,5S)-5-methoxypiperidin-3-yl]pyrazin-2-amine] |
| 28.3 nM | 542 nM |  |  | Clc1cc2ncn(-c3cncc(N[C@@H]4CCCNC4)n3)c2cn1 [Example 254, 6-(6-chloro-3H-imidazo[4,5-c]pyridin-3-yl)-N-[(3R)-piperidin-3-yl]pyrazin-2-amine] |
| 28 nM | 129 nM |  |  | COc1ccn2c(-c3cncc(N[C@H]4CN[C@H](COC(C)C)C4)n3)cnc2c1 [Example 242, 6-(7-methoxyimidazo[1,2-a]pyridin-3-yl)-N-{(3R,5S)-5-[(propan-2-yloxy)methyl]pyrrolidin-3-yl}pyrazin-2-amine] |
| 14.9 nM | 37 nM |  |  | COC[C@@H]1C[C@@H](Nc2cncc(-c3cnn4ccccc34)n2)CN1 [Example 261, N-[(3R,5S)-5-(methoxymethyl)pyrrolidin-3-yl]-6-(pyrazolo[1,5-a]pyridin-3-yl)pyrazin-2-amine] |
| 12.6 nM | 166 nM |  |  | CCOc1cc2c(cn1)ncn2-c1cncc(N[C@@H]2CCCNC2)n1 [Example 257, 6-(6-ethoxy-1H-imidazo[4,5-c]pyridin-1-yl)-N-[(3R)-piperidin-3-yl]pyrazin-2-amine] |
| 9.76 nM | 73 nM |  |  | CCOc1ccc2c(c1)ncn2-c1cncc(N[C@H]2CN[C@H](COC)C2)n1 [Example 269, 6-(5-ethoxy-1H-benzimidazol-1-yl)-N-[(3R,5S)-5-(methoxymethyl)pyrrolidin-3-yl]pyrazin-2-amine] |
| 4.9 nM | 87.1 nM |  |  | OC[C@@H]1C[C@@H](Nc2cncc(-c3cnc4ccccn34)n2)CN1 [Example 238, [(2S,4R)-4-{[6-(imidazo[1,2-a]pyridin-3-yl)pyrazin-2-yl]amino}pyrrolidin-2-yl]methanol] |
| 4.38 nM | 98.4 nM |  |  | CCOc1cc2ncn(-c3cncc(N[C@@H]4CCCNC4)n3)c2cn1 [Example 258, 6-(6-ethoxy-3H-imidazo[4,5-c]pyridin-3-yl)-N-[(3R)-piperidin-3-yl]pyrazin-2-amine] |

— patent publication US8518952B2, “6 substituted 2-heterocyclylamino pyrazine compounds as CHK-1 inhibitors” (Pfizer Inc., priority 2008, dated 2013)
